Results from patent publication US20100068359A1, “PRESERVATIVE METHOD” (CONOPCO, INC., D/B/A UNILEVER, priority 2008, published 2010).

Key:
[1] = system: APRY yeast; assay: APRY yeast challenge in YM broth with equal molar salts; format: cell-based, Zygosaccharomyces bailii and/or Zygosaccharomyces rouxii
Experimental: • 1. The growth media of the Bidlas et al. reference was used (YM broth and stock pH (6.0). (Growth media—YMB, Sabourda, PDB • 2. Three salts (NaCl, KCl, NH4Cl) were added in a increasing level. […] The detailed salt amounts are shown in the Table 7 below. • 3. The target pH for all compositions was 5.5. • 4. The effects on APRY Yeast, instead of pathogens as in Bidlas et al. were studied. • 5. Inhibition was measured by CFUs (colony forming units) • 6. Dramatic increases in APRY yeast levels are observed after more than about two days.

[2] = system: APRY yeast; assay: Challenge study in full fat mayonnaise model, APRY yeast; format: cell-based, Zygosaccharomyces bailii and/or Zygosaccharomyces rouxii
Source text: • 1. […] Formula adjustments were made to keep aqueous acetic acid and sugar levels constant, i.e. % active/(% water+% active)×100, i.e., about 1.53% to about 1.54% aqueous acetic acid and about 6.32% to about 6.36% aqueous sugar. • 3. […] Analytical data supported that the per cent replacement targets were met, […] The results of the challenge study over a number of weeks were reported (see Challenge Data in the Tables 3, 4 and 5 below).

[3] = system: Z. bailii

Row | Structure (SMILES) | APRY yeast level in broth ([1]; 0.51 N salt, day 0) | APRY yeast level in broth ([1]; 0.51 N salt, day 1) | APRY yeast level in broth ([1]; 0.51 N salt, day ½) | APRY yeast level in broth ([1]; 1.03 N salt, day 0) | APRY yeast level in broth ([1]; 1.03 N salt, day 1) | APRY yeast level in broth ([1]; 1.03 N salt, day 1½) | APRY yeast level in broth ([1]; 1.03 N salt, day 2) | APRY yeast level in broth ([1]; 1.03 N salt, day ½) | APRY yeast level in broth ([1]; 1.54 N salt, day 0) | APRY yeast level in broth ([1]; 1.54 N salt, day 1) | APRY yeast level in broth ([1]; 1.54 N salt, day 1½) | APRY yeast level in broth ([1]; 1.54 N salt, day 2) | APRY yeast level in broth ([1]; 1.54 N salt, day 5) | APRY yeast level in broth ([1]; 1.54 N salt, day 6) | APRY yeast level in broth ([1]; 1.54 N salt, day ½) | APRY yeast level in broth ([1]; 2.05 N salt, day 0) | APRY yeast level in broth ([1]; 2.05 N salt, day 1) | APRY yeast level in broth ([1]; 2.05 N salt, day 1½) | APRY yeast level in broth ([1]; 2.05 N salt, day 2) | APRY yeast level in broth ([1]; 2.05 N salt, day ½) | further results
1 | N.N.O=P(O)(O)O [DAP, di-ammonium hydrogen phosphate] | 17,600 CFUs | 324,000 CFUs | 8,100 CFUs | 21,000 CFUs | 10,200 CFUs | 24,000 CFUs | 250,000 CFUs | 7,100 CFUs | 6,000 CFUs | 10,300 CFUs | 2,000 CFUs | 6,700 CFUs | 120,900 CFUs | 117,600 CFUs | 13,000 CFUs | 10,000 CFUs | 11,500 CFUs | 6,000 CFUs | 7,100 CFUs | 9,600 CFUs | APRY yeast level in broth ([1]; 0.51 N salt, day 1½): 630,000 CFUs; APRY yeast level in broth ([1]; 1.54 N salt, day 8): 820,000 CFUs; APRY yeast level in broth ([1]; 1.54 N salt, day 11): 570,000 CFUs; APRY yeast level in broth ([1]; 1.54 N salt, day 13): 141,000 CFUs; APRY yeast level in broth ([1]; 1.54 N salt, day 14): 280,000 CFUs; APRY yeast level in broth ([1]; 2.05 N salt, day 5): 980 CFUs; APRY yeast level in broth ([1]; 2.05 N salt, day 6): 5,000 CFUs; APRY yeast level in broth ([1]; 2.05 N salt, day 8): 2,500 CFUs; APRY yeast level in broth ([1]; 2.05 N salt, day 11): 4,000 CFUs; APRY yeast level in broth ([1]; 2.05 N salt, day 13): 1,600 CFUs; APRY yeast level in broth ([1]; 2.05 N salt, day 14): 3,000 CFUs
2 | [Cl-].[K+] [KCl, potassium chloride] | 3,800 CFUs | 280,000 CFUs | 14,200 CFUs | 12,000 CFUs | 78,000 CFUs | 772,000 CFUs |  | 12,300 CFUs | 13,800 CFUs | 11,600 CFUs | 85,000 CFUs |  |  |  | 7,900 CFUs | 7,300 CFUs | 3,300 CFUs | 8,000 CFUs | 68,000 CFUs | 7,900 CFUs | growth of APRY yeast in the broth system ([1]; YM broth, target pH 5.5): does not inhibit the growth of APRY yeast
3 | Cl.N [NH4Cl, ammonium chloride] | 10,200 CFUs | 260,000 CFUs | 11,700 CFUs | 8,100 CFUs | 32,000 CFUs | 14,000 CFUs | 53,000 CFUs | 6,000 CFUs | 10,900 CFUs | 3,100 CFUs | 7,000 CFUs | 39,500 CFUs | 2,200 CFUs | 3,000 CFUs | 7,200 CFUs | 8,900 CFUs | 3,100 CFUs | 10,000 CFUs | 36,100 CFUs | 5,800 CFUs | Observation: APRY outgrowth / stability [2]: faster APRY die-off; APRY yeast level in broth ([1]; 0.51 N salt, day 1½): 672,000 CFUs; APRY yeast level in broth ([1]; 1.54 N salt, day 8): 2,900 CFUs; APRY yeast level in broth ([1]; 1.54 N salt, day 11): 4,600 CFUs; APRY yeast level in broth ([1]; 1.54 N salt, day 13): 40,000 CFUs; APRY yeast level in broth ([1]; 1.54 N salt, day 14): 84,000 CFUs; APRY yeast level in broth ([1]; 2.05 N salt, day 5): 700 CFUs; APRY yeast level in broth ([1]; 2.05 N salt, day 6): 700 CFUs; APRY yeast level in broth ([1]; 2.05 N salt, day 8): 1,600 CFUs; APRY yeast level in broth ([1]; 2.05 N salt, day 11): 400 CFUs; APRY yeast level in broth ([1]; 2.05 N salt, day 13): 600 CFUs; APRY yeast level in broth ([1]; 2.05 N salt, day 14): 800 CFUs
4 | [Cl-].[Na+] [NaCl, sodium chloride] | 13,100 CFUs | 440,000 CFUs | 4,300 CFUs | 10,000 CFUs | 3,200 CFUs | 7,000 CFUs | 29,000 CFUs | 6,900 CFUs | 13,200 CFUs | 2,300 CFUs | 8,000 CFUs | 3,900 CFUs | 2,740 CFUs | 1,840 CFUs | 3,800 CFUs | 9,800 CFUs | 2,700 CFUs | 7,000 CFUs | 4,500 CFUs | 5,100 CFUs | APRY yeast level in broth ([1]; 1.54 N salt, day 8): 3,600 CFUs; APRY yeast level in broth ([1]; 1.54 N salt, day 11): 3,300 CFUs; APRY yeast level in broth ([1]; 1.54 N salt, day 13): 2,900 CFUs; APRY yeast level in broth ([1]; 1.54 N salt, day 14): 3,500 CFUs; APRY yeast level in broth ([1]; 2.05 N salt, day 5): 1,730 CFUs; APRY yeast level in broth ([1]; 2.05 N salt, day 6): 2,110 CFUs; APRY yeast level in broth ([1]; 2.05 N salt, day 8): 1,600 CFUs; APRY yeast level in broth ([1]; 2.05 N salt, day 11): 700 CFUs; APRY yeast level in broth ([1]; 2.05 N salt, day 13): 700 CFUs; APRY yeast level in broth ([1]; 2.05 N salt, day 14): 800 CFUs
5 | [Ca+2].[Cl-].[Cl-] [calcium chloride] |  |  |  |  |  |  |  |  |  |  |  |  |  |  |  |  |  |  |  |  | Z. bailii outgrowth [3]: enhance Z. bailii outgrowth
6 | [Cl-].[Cl-].[Mg+2] [magnesium chloride] |  |  |  |  |  |  |  |  |  |  |  |  |  |  |  |  |  |  |  |  | Z. bailii outgrowth [3]: enhance Z. bailii outgrowth
